Measured values taken from paper PMC8850444, “The lipid components of high-density lipoproteins (HDL) are essential for the binding and transportation of antimicrobial peptides in human serum” (Scientific Reports, 2022).

Assays:
[1] = tested on: Escherichia coli K-12 (MG1655); assay type: cell-based; details: for repression of antimicrobial activity by human serum: E. coli 10^6 cfu/ml, 5% human serum (v/v) compared with PBS, mean ± SD n = 3
Procedure: The Gram-negative bacteria Escherichia coli K-12 (MG1655) was cultured and plated in/on Luria–Bertani broth/agar plate (Merck Millipore, Darmstadt, Germany). The bacteria were grown overnight, washed, and diluted 1:2000 in phosphate buffered saline (PBS), pH 7.4. Bacteria (ca. 1 × 10^6 colony-forming units, cfu/ml) was mixed with antimicrobial peptides (AMP) in 100 µl PBS and incubated at 37 °C. Serial dilutions of each AMP-treated bacteria in the presence of human sera, proteins or lipids were prepared and plated for determination of remaining viable cells (expressed as cfu). At least three independent experiments were performed for each assay to determine the mean value with standard deviation (SD)[31].
For all in vitro antimicrobial assays, the average value with standard deviation (SD) was determined from at least three independent experiments. Mann–Whitney test and Kruskal–Wallis tests were performed to determine the significance. For lipid quantification, the average value with standard deviation (SD) was determined from at least three independent experiments and One-way ANOVA test was performed to determine the significance of the difference in the measured values. P < 0.05 was considered to be statistically significant.

human albumin = details: cited from earlier work
human serum = assay: Band shift of AMPs in human serum on horizontal native PAGE; assay type: binding; details: AMP 4 µg in 10 µl diluted human serum, 5–40% (v/v), 8% horizontal native PAGE, Coomassie blue
Procedure: (§1) Various AMPs (4 µg each) were incubated with human serum, isolated components or lipid at the indicated concentrations at room temperature in 10 µl PC buffer (20 mM HEPES, pH7.4, 50 mM NaCl) for 30 min, subjected to horizontal native 8% polyacrylamide gel electrophoreses (PAGE), pH8.0/pH8.8, and stained with Coomassie Blue.

HDL = assay: Band shift of AMPs by HDL on horizontal native PAGE; assay type: binding, human; details: AMP 4 µg, agents 10 µg or lipids 4 µg in BSA, 8% horizontal native PAGE
Procedure: as §1

CC[C@H](C)[C@H](NC(=O)[C@H](CCCCN)NC(=O)[C@H](CCC(=O)O)NC(=O)[C@H](CCCCN)NC(=O)[C@H](CO)NC(=O)[C@H](CCCCN)NC(=O)[C@H](CCCNC(=N)N)NC(=O)[C@H](Cc1ccccc1)NC(=O)[C@H](Cc1ccccc1)NC(=O)[C@H](CC(=O)O)NC(=O)CNC(=O)[C@H](CC(C)C)NC(=O)[C@@H](N)CC(C)C)C(=O)NCC(=O)N[C@@H](CCCCN)C(=O)N[C@@H](CCC(=O)O)C(=O)N[C@@H](Cc1ccccc1)C(=O)N[C@@H](CCCCN)C(=O)N[C@@H](CCCNC(=N)N)C(=O)N[C@H](C(=O)N[C@H](C(=O)N[C@@H](CCC(N)=O)C(=O)N[C@@H](CCCNC(=N)N)C(=O)N[C@H](C(=O)N[C@@H](CCCCN)C(=O)N[C@@H](CC(=O)O)C(=O)N[C@@H](Cc1ccccc1)C(=O)N[C@@H](CC(C)C)C(=O)N[C@@H](CCCNC(=N)N)C(=O)N[C@@H](CC(N)=O)C(=O)N[C@@H](CC(C)C)C(=O)N[C@H](C(=O)N1CCC[C@H]1C(=O)N[C@@H](CCCNC(=N)N)C(=O)N[C@H](C(=O)N[C@@H](CCC(=O)O)C(=O)N[C@@H](CO)C(=O)O)[C@@H](C)O)C(C)C)[C@@H](C)CC)C(C)C)[C@@H](C)CC [LL37]
LC99 in 5% human serum ([1]; E. coli, cfu counting, 5% human serum, LC99 = lowest AMP concentration that kills 99% of the original inoculum, 37 °C): > 512 mg/L
LC99 in PBS ([1]; E. coli, cfu counting, PBS pH 7.4, LC99 = lowest AMP concentration that kills 99% of the original inoculum, 37 °C): 16 mg/L

daptomycin
fraction bound and inhibited by albumin (human albumin; human serum): 90–94%

Pleurocidin: antimicrobial peptide from Pleuronectes amertcanus (GWGSFFKKAAHVGKHVGKAALTHYL)
band shift of AMP in human serum (human serum): not shifted
repression of antimicrobial activity by human serum [1]: not at all observed
fold increase of LC99 in 5% human serum over PBS ([1]; E. coli, LC99 in 5% human serum versus PBS): one
bactericidal activity in presence of purified S50, E5, Apo-AI, PC, SM, CO and HDL ([1]; E. coli, NRC12 16 mg/L, Pleurocidin 8 mg/L): resistant
band shift by purified S50, E5, Apo-AI, PC, SM, CO and HDL (HDL): resistant

Polymyxin B
band shift of AMP in human serum (human serum): not shifted
repression of antimicrobial activity by human serum [1]: not at all observed

CC(=O)CC(c1ccccc1)c1c(O)c2ccccc2oc1=O (centres unmarked) [warfarin]
fraction bound to human albumin (human albumin; human albumin drug binding site I (warfarin) and site II (ibuprofen)): more than 90%
